For test [1], the target named is T1, M2_G15 fusion protein (M2 muscarinic receptor fused with the G15 G-protein alpha-subunit) (Homo sapiens, UniProt P08172).
T1 sequence (P08172 1-466): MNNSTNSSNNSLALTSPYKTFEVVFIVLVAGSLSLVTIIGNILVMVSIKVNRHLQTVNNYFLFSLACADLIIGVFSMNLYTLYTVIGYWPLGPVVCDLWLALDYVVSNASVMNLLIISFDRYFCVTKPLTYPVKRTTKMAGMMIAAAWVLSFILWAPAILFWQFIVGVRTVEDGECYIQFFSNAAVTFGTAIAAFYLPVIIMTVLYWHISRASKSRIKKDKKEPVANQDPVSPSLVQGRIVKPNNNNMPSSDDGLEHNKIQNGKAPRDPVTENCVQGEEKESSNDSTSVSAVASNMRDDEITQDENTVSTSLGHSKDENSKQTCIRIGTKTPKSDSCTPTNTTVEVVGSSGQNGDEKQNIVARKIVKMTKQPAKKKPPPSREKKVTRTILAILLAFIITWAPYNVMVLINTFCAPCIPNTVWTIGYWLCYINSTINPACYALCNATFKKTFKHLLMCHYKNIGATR
T1 sequence (P30679 1-374 partner): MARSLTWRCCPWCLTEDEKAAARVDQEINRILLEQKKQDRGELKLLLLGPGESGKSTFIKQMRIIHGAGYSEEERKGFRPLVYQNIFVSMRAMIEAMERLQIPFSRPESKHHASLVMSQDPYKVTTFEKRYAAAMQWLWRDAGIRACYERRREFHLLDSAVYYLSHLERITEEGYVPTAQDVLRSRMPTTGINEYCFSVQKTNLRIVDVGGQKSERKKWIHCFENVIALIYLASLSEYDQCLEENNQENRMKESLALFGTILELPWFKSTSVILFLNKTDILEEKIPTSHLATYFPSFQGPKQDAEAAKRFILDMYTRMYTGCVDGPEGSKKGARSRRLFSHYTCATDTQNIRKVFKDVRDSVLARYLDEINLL
Description: agonist-stimulated […]GTPγS binding, membranes. The test is classed as biochemical. On the set-up: gene CHRM2; clone #3, except KA from all five clones. For orientation: GTPγS is a poorly hydrolysed GTP analogue; its binding reports G protein activation.

The target in test [2] is T2, M4_G15 fusion protein (M4 muscarinic receptor fused with the G15 G-protein alpha-subunit) (Homo sapiens, UniProt P08173).
T2 sequence (P08173 1-479): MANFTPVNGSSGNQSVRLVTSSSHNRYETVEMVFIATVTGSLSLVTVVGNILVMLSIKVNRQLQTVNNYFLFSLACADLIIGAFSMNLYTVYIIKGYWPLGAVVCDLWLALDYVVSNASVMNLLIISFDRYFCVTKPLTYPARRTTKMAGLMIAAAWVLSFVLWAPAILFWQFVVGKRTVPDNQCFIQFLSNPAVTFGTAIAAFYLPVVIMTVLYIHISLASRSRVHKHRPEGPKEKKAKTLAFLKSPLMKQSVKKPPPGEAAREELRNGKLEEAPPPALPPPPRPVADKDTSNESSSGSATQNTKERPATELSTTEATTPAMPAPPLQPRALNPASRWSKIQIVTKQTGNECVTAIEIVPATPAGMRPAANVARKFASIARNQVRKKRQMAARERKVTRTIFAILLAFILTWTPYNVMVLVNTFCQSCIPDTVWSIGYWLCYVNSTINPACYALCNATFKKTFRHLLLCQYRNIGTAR
T2 sequence (P30679 1-374 partner): T1 sequence (P30679 1-374 partner)
The test can be described thus: biochemical. On the set-up: gene CHRM4.

For test [3], the target named is T2, M4_G15 fusion protein (M4 muscarinic receptor fused with the G15 G-protein alpha-subunit). The test can be described thus: agonist-stimulated […]GTPγS binding, membranes. It is filed as biochemical. On the set-up: gene CHRM4; M4 fused via ARATR linker to N-terminus of G15 alpha-subunit (one fused chain); clone #3, except KA from all five clones.
Test [4] addresses T1, M2_G15 fusion protein (M2 muscarinic receptor fused with the G15 G-protein alpha-subunit). The test can be described thus: biochemical. Set-up: gene CHRM2.

As a reminder, the pEC50 is −log10 of the EC50, conventionally taken in molar units. High values mean a small EC50, low ones a large EC50. Broadly, the EC50 is the concentration that produces a half-maximal response. A higher EC50 goes with lower potency in that assay. What is called Ki is a dissociation constant, usually derived from enzyme kinetics or from competition with a known ligand. Read a high Ki as weaker binding.

In turn, `Clc1ccc2c(c1)N=C(N1CCNCC1)c1ccccc1N2` [NDMC] registered a pEC50 in test [1] (clone #[…], agonist; […] […]GTPγS, […] GDP, […] MgCl2, […] °C) of 6.84 ± 0.03.

Turning to `O=C1CCCN1CC#CCN1CCCC1` [oxotremorine], the figures for the EC50 in test [1] and in test [3] were 0.0186 µM and 0.017 µM, respectively. Besides, the results for the inhibition constant (Ki) in test [2] and in test [4] were 1.48 µM and 1.66 µM, respectively.

Values taken from paper PMC6420642, “Applications and limitations of fitting of the operational model to determine relative efficacies of agonists” (Scientific Reports, 2019).
